Reference: US12036228B2, “Treatment of seizure disorders” (Shackelford Pharma Inc., priority 2022, dated 2024)
Several values for one entry are separate records, joined by “and”; a condition that tells them apart may be missing. Identical values can stand only once. Like-named read-outs stand apart in the source and are kept apart here.

Columns and labels:
[1] = tested on: GTC seizures in human patient; assay: Example 2 human patient, Dravet syndrome; format: in vivo
Description: A patient first started having seizures and was subsequently diagnosed with Dravet syndrome. Initially, they were having clusters of 2 GTC seizures a day for 2 days occurring about every 2 weeks. Keppra was ineffective as were other combinations of anti-epileptic drugs. Several different combinations were tried and by the time they were first seen for evaluation for cannabinoid treatment on Aug. 7, 2014, they were taking Depakote 125 mg BID, Clonazepam 0.5 mg TID, and Versed/Diastat as needed for rescue but was still having clusters of GTC seizures every 2 weeks. The patient had started a CBD product on Jul. 3, 2014 (product analysis: 11.2 mg CBD/gm with 0.38 mg THC/gm at a dose of 0.7 mL TID (unknown concentration per mL), but seizures still were occurring irregularly—primarily GTC occurring in clusters of 1-2 per day every two weeks, rare atonic, and occasional eye-flutters.

[2] = tested on: GTC seizures in human patient; assay: Example 7 human patient, intractable GTC seizures; format: in vivo
Description: A patient was first diagnosed with intractable GTC seizures without status epilepticus in 2001.
The patient first presented for cannabinoid treatment on May 24, 2013. They were then a PhD student in economics. The patient's medical history is significant for having a car accident with a concussion and “scarring”. They developed GTC seizures occurring 3 times per month. […] In 2008, they started using recreational cannabis occasionally, but not regularly.

male CD-1 mice = assay: Neurological assessment (score 0-3) immediately prior to seizure test; format: in vivo, mouse; parameters: key to Neurological Score: 0: Normal; 1: Modest decrease in spontaneous activity; 2: Marked decrease in spontaneous activity; 3: Loss of righting reflex; conditions: for Neurological Score: 30 min after dosing, individual animals
Description: Immediately prior to each seizure test, a brief neurological assessment was performed.

[3] = tested on: male CD-1 mice, 6 Hz (22 mA) corneal stimulus psychomotor seizure; assay: Mouse 6 Hz seizure (22 mA) test; format: in vivo; conditions: for % Seizure, group / % Seizure / F. Clonus / Lat H. Movement / Straub T. / Stun / Total (seizure score) / Total (seizure score), group mean / ED50: 30 min before test; for % Seizure: individual animals (0/1); for F. Clonus / Lat H. Movement / Straub T. / Stun / Total (seizure score): individual animals; for ED50: Mus musculus, IP
Description: This study assessed the anti-epileptic effects of low doses of dronabinol in the mouse 6 Hz seizure (22 mA) test at 4 dose levels. Sixty male CD-1 mice were randomly allocated to 1 of 7 treatment groups outlined in Table 1 below. The mice were purchased from Charles River Laboratories (St. Constant, Quebec, Canada). On the day of the experiment, general health observations and body weight measurements were performed prior to dosing. Thirty (30) minutes after administration of assigned treatments in Table 1, animals underwent a neurological assessment followed immediately by 6 Hz testing. Descriptions of these procedures are provided below.
Dronabinol and sodium valproate were dissolved in their respective vehicles on the day of dosing. Treatments were intraperitoneally administered to the lower right quadrant of the abdomen according to standard operating procedures. Treatment group summaries are included in Table 1.
On the scheduled test day, subjects received a dose of their assigned treatment 30 minutes before the electrical stimulus. Following neurological assessments, animals then received an electrical stimulus (6 Hz, 0.2 millisecond pulse width, 3 second duration, 22 mA) via corneal electrodes moistened with saline (ECT unit 57800; Ugo Basile). In approximately 50% of control animals, these stimulus parameters should elicit a psychomotor seizure within 30 seconds of stimulus delivery, defined as the expression of at least one of the following behaviours: stun/immobility, forelimb clonus, straub tail, or lateral head movement. Protection was defined as complete absence of the following: stun/immobility, forelimb clonus, straub tail and/or lateral head movement, within 30 seconds of stimulus delivery. A seizure score was assigned to each animal based on the number of these behaviours expressed by the animal after stimulus application. Once the animal either entered into a seizure, or 30 seconds elapsed, the endpoint was reached, and the animal was immediately euthanized.
All statistical analyses were performed using GraphPad Prism v.7.03. Analysis of variance (ANOVA) was completed for total seizure score data with the independent grouping variable of treatment (i.e., test article dose and control). In the event of a significant main effect, post-hoc Fisher's least significant difference analysis was conducted to compare vehicle with drug treatment.

[4] = tested on: seizures in human patient; assay: Example 3 human patient, GTC and complex partial seizures; format: in vivo; conditions: including ataxia; discontinued after 6 months
Description: A patient first started having GTC and complex partial (CP) seizures. […] The patient was referred for evaluation for initiation of cannabinoid/THC treatment in March 2014.

For `CC(C)(C)C(O)/C=C/c1ccc2c(c1)OCO2` (stereo not drawn) [stiripentol], the myoclonic seizures ([1]; stiripentol added to Depakote and Onfi (and THC 5 mg HS)) was “resolution of myoclonic seizures”.
With `CC[C@@H](C(N)=O)N1CCCC1=O` [Keppra, levetiracetam] the effect on seizures ([1]; Dravet patient, initial treatment) was “ineffective”.
For `NC(=O)N1c2ccccc2C=Cc2ccccc21` [Tegretol], the side effects ([2]; Tegretol (dose unknown)) was “concerning side effects”.
For `CCCC(CCC)C(=O)[O-].[Na+]` [Sodium Valproate, Sodium valproate], the “motor impairment (neurological assessment)” value (male CD-1 mice; 600 mg/kg IP) was “noticeable motor impairment on all animals”, the “Neurological Score” value (male CD-1 mice; 600 mg/kg IP, N = 4) was 2 and the “Neurological Score, group mean” value (male CD-1 mice; 600 mg/kg IP, N = 4) was 2.0. For the same compound, the “% Seizure, group” value ([3]; 600 mg/kg IP, N = 4) was 0.0%, the “% Seizure” value ([3]; 600 mg/kg IP, N = 4) was 0 and the “F. Clonus” value ([3]; 600 mg/kg IP, N = 4) was 0. For the same compound, the “Lat H. Movement” value ([3]; 600 mg/kg IP, N = 4) was 0, the “Straub T.” value ([3]; 600 mg/kg IP, N = 4) was 0 and the Stun ([3]; 600 mg/kg IP, N = 4) was 0. The “Total (seizure score)” value ([3]; 600 mg/kg IP, N = 4) was 0, the “Total (seizure score), group mean” value ([3]; 600 mg/kg IP, N = 4) was 0.0 and the “seizure scores (mean±SEM) vs vehicle, post-hoc analysis” value ([3]; p<0.01) was “reduction in seizure scores”.
For `CCCC(CCC)C(=O)O` [Depakote], the side effects [4] was “debilitating side effects”.
With `NC(=O)N1c2ccccc2CC(=O)c2ccccc21` [Trileptal] the side effects ([2]; Trileptal) was “concerning side effects”.
For `CCCCCc1cc(O)c2c(c1)OC(C)(C)[C@@H]1CCC(C)=C[C@@H]21` [Dronabinol], the “Neurological Score” value (male CD-1 mice; 0.002 mg/kg IP, N = 8) was 0, the “Neurological Score, group mean” value (male CD-1 mice; 0.002 mg/kg IP, N = 8) was 0.0 and the “Neurological Score” value (male CD-1 mice; 0.02 mg/kg IP, N = 8) was 0. For the same compound, the “Neurological Score, group mean” value (male CD-1 mice; 0.02 mg/kg IP, N = 8) was 0.0, the “Neurological Score” value (male CD-1 mice; 0.2 mg/kg IP, N = 8) was 0 and the “Neurological Score, group mean” value (male CD-1 mice; 0.2 mg/kg IP, N = 8) was 0.0. For the same compound, the “effect on behaviour as measured by neurological scoring” value (male CD-1 mice; 0.002-4 mg/kg IP) was “no measurable effect on behaviour”, the “Neurological Score” value (male CD-1 mice; 2 mg/kg IP, N = 11) was 0 and the “Neurological Score, group mean” value (male CD-1 mice; 2 mg/kg IP, N = 11) was 0.0. For the same compound, the “Neurological Score” value (male CD-1 mice; 4 mg/kg IP, N = 9) was 0, the “Neurological Score, group mean” value (male CD-1 mice; 4 mg/kg IP, N = 9) was 0.0 and the “% Seizure, group” value ([3]; 0.002 mg/kg IP, N = 8) was 62.5%. The “% Seizure” value ([3]; 0.002 mg/kg IP, N = 8) was 1 (5×) and 0 (3×), the “F. Clonus” value ([3]; 0.002 mg/kg IP, N = 8) was 1 (4×) and 0 (4×) and the “Lat H. Movement” value ([3]; 0.002 mg/kg IP, N = 8) was 1 (3×) and 0 (5×). For the same compound, the “Straub T.” value ([3]; 0.002 mg/kg IP, N = 8) was 0 (7×) and 1, the Stun ([3]; 0.002 mg/kg IP, N = 8) was 1 (4×) and 0 (4×) and the “Total (seizure score)” value ([3]; 0.002 mg/kg IP, N = 8) was 3 (2×) and 2 (3×) and 0 (3×). For the same compound, the “Total (seizure score), group mean” value ([3]; 0.002 mg/kg IP, N = 8) was 1.5, the “% Seizure, group” value ([3]; 0.02 mg/kg IP, N = 8) was 50.0% and the “% Seizure” value ([3]; 0.02 mg/kg IP, N = 8) was 0 (4×) and 1 (4×). The “F. Clonus” value ([3]; 0.02 mg/kg IP, N = 8) was 0 (7×) and 1, the “Lat H. Movement” value ([3]; 0.02 mg/kg IP, N = 8) was 0 (5×) and 1 (3×) and the “Straub T.” value ([3]; 0.02 mg/kg IP, N = 8) was 0 (7×) and 1. For the same compound, the Stun ([3]; 0.02 mg/kg IP, N = 8) was 0 (5×) and 1 (3×), the “Total (seizure score)” value ([3]; 0.02 mg/kg IP, N = 8) was 0 (4×) and 2 (2×) and 1 and 3 and the “Total (seizure score), group mean” value ([3]; 0.02 mg/kg IP, N = 8) was 1.0. The “% Seizure, group” value ([3]; 0.2 mg/kg IP, N = 8) was 50.0%, the “% Seizure” value ([3]; 0.2 mg/kg IP, N = 8) was 0 (4×) and 1 (4×) and the “F. Clonus” value ([3]; 0.2 mg/kg IP, N = 8) was 0 (6×) and 1 (2×). For the same compound, the “Lat H. Movement” value ([3]; 0.2 mg/kg IP, N = 8) was 0 (7×) and 1, the “Straub T.” value ([3]; 0.2 mg/kg IP, N = 8) was 0 (5×) and 1 (3×) and the Stun ([3]; 0.2 mg/kg IP, N = 8) was 0 (4×) and 1 (4×). For the same compound, the “Total (seizure score)” value ([3]; 0.2 mg/kg IP, N = 8) was 0 (4×) and 3 (2×) and 2 (2×), the “Total (seizure score), group mean” value ([3]; 0.2 mg/kg IP, N = 8) was 1.3 and the “% Seizure, group” value ([3]; 2 mg/kg IP, N = 11) was 54.5%. For the same compound, the “% Seizure” value ([3]; 2 mg/kg IP, N = 11) was 1 (6×) and 0 (5×), the “F. Clonus” value ([3]; 2 mg/kg IP, N = 11) was 1 (5×) and 0 (6×) and the “Lat H. Movement” value ([3]; 2 mg/kg IP, N = 11) was 0 (8×) and 1 (3×). The “Straub T.” value ([3]; 2 mg/kg IP, N = 11) was 0 (10×) and 1, the Stun ([3]; 2 mg/kg IP, N = 11) was 0 (8×) and 1 (3×) and the “Total (seizure score)” value ([3]; 2 mg/kg IP, N = 11) was 1 (2×) and 0 (5×) and 2 (3×) and 4. For the same compound, the “Total (seizure score), group mean” value ([3]; 2 mg/kg IP, N = 11) was 1.0, the “seizure incidence in the 6 HZ seizure test” value ([3]; 4 mg/kg IP) was “Decreased seizure incidence” and the “% Seizure, group” value ([3]; 4 mg/kg IP, N = 9) was 33.3%. For the same compound, the “% Seizure” value ([3]; 4 mg/kg IP, N = 9) was 0 (6×) and 1 (3×), the “F. Clonus” value ([3]; 4 mg/kg IP, N = 9) was 0 and the “Lat H. Movement” value ([3]; 4 mg/kg IP, N = 9) was 0. For the same compound, the “Straub T.” value ([3]; 4 mg/kg IP, N = 9) was 0 (8×) and 1, the Stun ([3]; 4 mg/kg IP, N = 9) was 0 (6×) and 1 (3×) and the “Total (seizure score)” value ([3]; 4 mg/kg IP, N = 9) was 0 (6×) and 1 (2×) and 2. For the same compound, the “Total (seizure score), group mean” value ([3]; 4 mg/kg IP, N = 9) was 0.4, the “seizure scores (mean±SEM) vs vehicle, post-hoc analysis” value ([3]; 0.02, 2, and 4 mg/kg doses IP, p<0.05) was “reduction in seizure scores” and the ED50 ([3]; 0.002 to 4 mg/kg doses, 95% confidence limits 1.36-11.82 mg/kg, read-out: ED50, decrease in percentage incidence of seizures) was 4.01 mg/kg. It also gave an ED50 ([3]; 95% CI (0.01-1.05), read-out: ED50, decrease in the seizure score) of 0.1 mg/kg.
